# According to US9708308B2, “Factor IXa inhibitors” (Merck Sharp & Dohme Corp., priority 2012, dated 2017):
# Target: Factor IXa (Homo sapiens, UniProt P00740)
# Test: Determination of inhibitory activity against Factor IXa (cleavage of fluorescent peptide substrate)
# Assay type: biochemical
# Settings: cleavage of fluorescent peptide CH3SO2-D-CHG-Gly-Arg-AFC, release of AFC; read-out: FIXa IC50
# From the text: • (R)—N-(3-aminobenzo[d]isoxazol-6-yl)-2-hydroxy-2-((R)-4-(1-(6-methoxypyridazin-4-yl)-1H-pyrazol-3-yl)-6,6-dimethyl-3-oxomorpholin-2-yl)acetamide. Determination of Inhibitory Activity Against Factor IXa
# Formation of a clot to stem bleeding at a site of blood vessel injury involves the coordinated activity of a group of plasma proteins that initiate and propagate fibrin formation and subsequently protect fibrin from premature degradation. Factor IX is a key component of the plasma system that forms a fibrin clot at a site of vascular injury. The activity of Factor IXa is measured by monitoring the cleavage of the fluorescent peptide, CH3SO2-D-CHG-Gly-Arg-AFC.AcOH (“CHG” is cyclohexyl-glycine and “AFC” is trifluoro aminomethyl coumarin). Factor IXa cleaves the amide bond between Arg and AFC, thereby releasing the AFC fluorophore. The free AFC can be detected with a fluorescence detector at an excitation wavelength of 405 nm and emission wavelength of 510 nm.
# Factor IXa, sequence (P00740 227-461 limits assumed): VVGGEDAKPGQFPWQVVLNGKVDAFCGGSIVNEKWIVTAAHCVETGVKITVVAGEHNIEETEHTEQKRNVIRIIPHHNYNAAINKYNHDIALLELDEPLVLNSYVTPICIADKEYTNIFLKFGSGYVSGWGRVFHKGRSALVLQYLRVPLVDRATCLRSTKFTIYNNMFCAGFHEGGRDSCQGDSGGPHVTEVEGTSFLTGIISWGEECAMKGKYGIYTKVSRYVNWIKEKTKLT
# Factor IXa, sequence (P00740 47-191 partner limits assumed): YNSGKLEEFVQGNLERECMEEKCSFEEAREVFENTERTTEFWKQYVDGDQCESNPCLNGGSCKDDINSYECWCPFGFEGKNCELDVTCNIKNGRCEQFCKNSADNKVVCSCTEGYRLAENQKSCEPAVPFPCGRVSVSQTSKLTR
row,IC50 [µM],Structure (SMILES)
1,0.00648,"COc1cc(-n2cc(F)c(N3CCO[C@H]([C@@](C)(O)C(=O)Nc4ccc5c(N)noc5c4)C3=O)n2)cnn1 [Example 49, (R)—N-(3-aminobenzo[d]isoxazol-6-yl)-2-((R)-4-(4-fluoro-1-(6-methoxypyridazin-4-yl)-1H-pyrazol-3-yl)-3-oxomorpholin-2-yl)-2-hydroxypropanamide]"
2,0.00189,"C[C@](O)(C(=O)Nc1ccc2c(N)noc2c1)[C@H]1OCCN(c2nn(-c3cnnc(C(F)(F)F)c3)cc2F)C1=O [Example 50, (R)—N-(3-aminobenzo[d]isoxazol-6-yl)-2-((R)-4-(4-fluoro-1-(6-(trifluoromethyl)pyridazin-4-yl)-1H-pyrazol-3-yl)-3-oxomorpholin-2-yl)-2-Hydroxypropanamide]"
3,0.17,"Cc1nccc(-n2ccc(N3CCO[C@H]([C@@](C)(O)C(=O)Nc4ccc5c(N)noc5c4)C3=O)n2)n1 [Example 51, (R)—N-(3-aminobenzo[d]isoxazol-6-yl)-2-hydroxy-2-((R)-4-(1-(2-methylpyrimidin-4-yl)-1H-pyrazol-3-yl)-3-oxomorpholin-2-yl)propanamide]"
4,0.102,"CN(C)c1nccc(-n2ccc(N3CCO[C@H]([C@@](C)(O)C(=O)Nc4ccc5c(N)noc5c4)C3=O)n2)n1 [Example 52, (R)—N-(3-aminobenzo[d]isoxazol-6-yl)-2-((R)-4-(1-(2-(dimethylamino)pyrimidin-4-yl)-1H-pyrazol-3-yl)-3-oxomorpholin-2-yl)-2-Hydroxypropanamide]"
5,0.0767,"C[C@](O)(C(=O)Nc1ccc2c(N)noc2c1)[C@H]1OCCN(c2ccn(-c3ccnc(C(F)(F)F)n3)n2)C1=O [Example 53, (R)—N-(3-aminobenzo[d]isoxazol-6-yl)-2-hydroxy-2-((R)-3-oxo-4-(1-(2-(trifluoromethyl)pyrimidin-4-yl)-1H-pyrazol-3-yl)morpholin-2-yl)propanamide]"
6,0.145,"C[C@](O)(C(=O)Nc1ccc2c(N)noc2c1)[C@H]1OCCN(c2ccn(-c3ccnc(C#N)n3)n2)C1=O [Example 54, (R)—N-(3-aminobenzo[d]isoxazol-6-yl)-2-((R)-4-(1-(2-cyanopyrimidin-4-yl)-1H-pyrazol-3-yl)-3-oxomorpholin-2-yl)-2-hydroxypropanamide]"
7,0.0248,"COc1nccc(-n2ccc(N3CCO[C@H]([C@@](C)(O)C(=O)Nc4ccc5c(N)noc5c4)C3=O)n2)n1 [Example 55, (R)—N-(3-aminobenzo[d]isoxazol-6-yl)-2-hydroxy-2-((R)-4-(1-(2-methoxypyrimidin-4-yl)-1H-pyrazol-3-yl)-3-oxomorpholin-2-yl)propanamide]"
8,0.0845,"COc1cc(-n2ccc(N3CCO[C@H]([C@@](C)(O)C(=O)Nc4ccc5c(N)noc5c4)C3=O)n2)ncn1 [Example 56, (R)—N-(3-aminobenzo[d]isoxazol-6-yl)-2-hydroxy-2-((R)-4-(1-(6-methoxypyrimidin-4-yl)-1H-pyrazol-3-yl)-3-oxomorpholin-2-yl)propanamide]"
9,0.0637,"C[C@](O)(C(=O)Nc1ccc2c(N)noc2c1)[C@H]1OCCN(c2nn(-c3ccnc(C(F)(F)F)n3)cc2F)C1=O [Example 57, (R)—N-(3-aminobenzo[d]isoxazol-6-yl)-2-((R)-4-(4-fluoro-1-(2-(trifluoromethyl)pyrimidin-4-yl)-1H-pyrazol-3-yl)-3-oxomorpholin-2-yl)-2-hydroxypropanamide]"
10,0.032,"COc1nccc(-n2cc(F)c(N3CCO[C@H]([C@@](C)(O)C(=O)Nc4ccc5c(N)noc5c4)C3=O)n2)n1 [Example 58, (R)—N-(3-aminobenzo[d]isoxazol-6-yl)-2-((R)-4-(4-fluoro-1-(2-methoxypyrimidin-4-yl)-1H-pyrazol-3-yl)-3-oxomorpholin-2-yl)-2-hydroxypropanamide]"
11,0.0728,"Cc1cc(N2CCO[C@H]([C@@](C)(O)C(=O)Nc3ccc4c(N)noc4c3)C2=O)nn1-c1ccnc(C(F)(F)F)n1 [Example 59, (R)—N-(3-aminobenzo[d]isoxazol-6-yl)-2-hydroxy-2-((R)-4-(5-methyl-1-(2-(trifluoromethyl)pyrimidin-4-yl)-1H-pyrazol-3-yl)-3-oxomorpholin-2-yl)propanamide]"
12,0.093,"C[C@](O)(C(=O)Nc1ccc2c(N)noc2c1)[C@H]1OCCN(c2ccc(-c3ccnc(C#N)c3)o2)C1=O [Example 61, (R)—N-(3-aminobenzo[d]isoxazol-6-yl)-2-((R)-4-(5-(2-cyanopyridin-4-yl)furan-2-yl)-3-oxomorpholin-2-yl)-2-hydroxypropanamide]"
13,0.0435,"C[C@](O)(C(=O)Nc1ccc2c(N)noc2c1)[C@H]1OCCN(c2ccc(-c3ccnc(C(F)(F)F)c3)o2)C1=O [Example 62, (R)—N-(3-aminobenzo[d]isoxazol-6-yl)-2-hydroxy-2-((R)-3-oxo-4-(5-(2-(trifluoromethyl)pyridin-4-yl)furan-2-yl)morpholin-2-yl)propanamide]"
14,0.131,"COc1cc(-c2ccc(N3CCO[C@H]([C@@](C)(O)C(=O)Nc4ccc5c(N)noc5c4)C3=O)o2)ccn1 [Example 63, (R)—N-(3-aminobenzo[d]isoxazol-6-yl)-2-hydroxy-2-((R)-4-(5-(2-methoxypyridin-4-yl)furan-2-yl)-3-oxomorpholin-2-yl)propanamide]"
15,0.124,"COc1nccc(-c2ccc(N3CCO[C@H]([C@@](C)(O)C(=O)Nc4ccc5c(N)noc5c4)C3=O)o2)n1 [Example 64, (R)—N-(3-aminobenzo[d]isoxazol-6-yl)-2-hydroxy-2-((R)-4-(5-(2-methoxypyrimidin-4-yl)furan-2-yl)-3-oxomorpholin-2-yl)propanamide]"
16,0.468,"CC(C)(O)c1cccc(N2CCO[C@H]([C@@](C)(O)C(=O)Nc3ccc4c(N)noc4c3)C2=O)n1 [Example 65, (R)—N-(3-aminobenzo[d]isoxazol-6-yl)-2-hydroxy-2-((R)-4-(6-(2-hydroxypropan-2-yl)pyridin-2-yl)-3-oxomorpholin-2-yl)propanamide]"
17,0.0669,"C[C@](O)(C(=O)Nc1ccc2c(N)noc2c1)[C@H]1OCCN(c2cccc(-c3ccnnc3)n2)C1=O [Example 67, (R)—N-(3-aminobenzo[d]isoxazol-6-yl)-2-hydroxy-2-((R)-3-oxo-4-(6-(pyridazin-4-yl)pyridin-2-yl)morpholin-2-yl)propanamide]"
18,0.574,"C[C@](O)(C(=O)Nc1ccc2c(N)noc2c1)[C@H]1OCCN(c2ccc3cc(C(F)(F)F)ccc3n2)C1=O [Example 68, (R)—N-(3-aminobenzo[d]isoxazol-6-yl)-2-hydroxy-2-((R)-3-oxo-4-(6-(trifluoromethyl)quinolin-2-yl)morpholin-2-yl)propanamide]"
19,0.384,"C[C@](O)(C(=O)Nc1ccc2c(N)noc2c1)[C@H]1OCCN(c2ccc3ccncc3n2)C1=O [Example 69, (R)-2-((R)-4-(1,7-naphthyridin-2-yl)-3-oxomorpholin-2-yl)-N-(3-aminobenzo[d]isoxazol-6-yl)-2-hydroxypropanamide]"
20,0.195,"Cc1nn(C)c2nc(N3CCO[C@H]([C@@](C)(O)C(=O)Nc4ccc5c(N)noc5c4)C3=O)ccc12 [Example 70, (R)—N-(3-aminobenzo[d]isoxazol-6-yl)-2-((R)-4-(1,3-dimethyl-1H-pyrazolo[3,4-b]pyridin-6-yl)-3-oxomorpholin-2-yl)-2-hydroxypropanamide]"
